Results on four cell lines are retold here after the supplement of paper PMC10307832.

Common to all, as to test: relative viability (nuclei count vs DMSO), 5 days (fraction); higher = more cells survive
Compound in the test “BMX-IN-1 + Dasatinib”: C=CC(=O)Nc1cc(-n2c(=O)ccc3cnc4ccc(-c5ccc(NS(C)(=O)=O)cc5)cc4c32)ccc1C [BMX-IN-1] + Cc1nc(Nc2ncc(C(=O)Nc3c(C)cccc3Cl)s2)cc(N2CCN(CCO)CC2)n1 [Dasatinib] (partner 0.075 µM)
Put shortly: (§1)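 Nuclei were stained with Hoechst during a one-step fixation (final 0.05% Triton X-100, 1% formaldehyde, 1 ug/ml Hoechst) carried out 5 days after dosing, then counted on 4× images. The cells, lung cancer lines in 1536-well plates, had been dosed by pin tool the day after seeding with one drug alone or a fixed anchor-drug dose plus five library-drug doses (not always all listed) in √10 steps. Relative viability is the nuclei count in treated wells divided by that in vehicle wells, and each value is the median of duplicate plates.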

Compound in the test “BMX-IN-1 + Phenformin”: C=CC(=O)Nc1cc(-n2c(=O)ccc3cnc4ccc(-c5ccc(NS(C)(=O)=O)cc5)cc4c32)ccc1C [BMX-IN-1] + N=C(N)NC(=N)NCCc1ccccc1 [Phenformin] (partner 250 µM)
The gist of the method: as §1

Compound in the test “BMX-IN-1 + Decitabine”: C=CC(=O)Nc1cc(-n2c(=O)ccc3cnc4ccc(-c5ccc(NS(C)(=O)=O)cc5)cc4c32)ccc1C [BMX-IN-1] + Nc1ncn([C@H]2C[C@H](O)[C@@H](CO)O2)c(=O)n1 [Decitabine] (partner 2 µM)
Put shortly:
as §1

Compound in the test “PAC-1 + Bortezomib”: C=CCc1cccc(/C=N/NC(=O)CN2CCN(Cc3ccccc3)CC2)c1O [PAC-1] + CC(C)C[C@H](NC(=O)[C@H](Cc1ccccc1)NC(=O)c1cnccn1)B(O)O [Bortezomib] (partner 0.002 µM)
Put shortly: as §1

Compound in the test “PAC-1 + Decitabine”: C=CCc1cccc(/C=N/NC(=O)CN2CCN(Cc3ccccc3)CC2)c1O [PAC-1] + Nc1ncn([C@H]2C[C@H](O)[C@@H](CO)O2)c(=O)n1 [Decitabine] (partner 2 µM)
Put shortly:
as §1

On to NCI-H1792, for which the relative viability came out at 0.817 with BMX-IN-1 + Dasatinib (first compound 0.2 µM); 0.714 with BMX-IN-1 + Dasatinib (first compound 0.6325 µM); 0.862 in the test with BMX-IN-1 + Dasatinib (first compound 2 µM); 0.235 with BMX-IN-1 + Phenformin (first compound 0.02 µM); 0.354 with BMX-IN-1 + Phenformin (first compound 0.2 µM); 0.292 with BMX-IN-1 + Phenformin (first compound 0.6325 µM). In addition, the relative viability in the test with BMX-IN-1 + Phenformin (first compound 2 µM) is 0.312; in the test with BMX-IN-1 + Decitabine (first compound 0.02 µM) it was 0.539; with BMX-IN-1 + Decitabine (first compound 0.2 µM), 0.615; with BMX-IN-1 + Decitabine (first compound 0.6325 µM) it was 0.525; with BMX-IN-1 + Decitabine (first compound 2 µM), 0.568; in the test with PAC-1 + Bortezomib (first compound 0.02 µM) it was 0.982. Moreover, the relative viability was found to be 1.01 with PAC-1 + Bortezomib (first compound 0.06325 µM); 0.947 in the test with PAC-1 + Bortezomib (first compound 0.2 µM); 0.896 in the test with PAC-1 + Bortezomib (first compound 2 µM); 0.539 in the test with PAC-1 + Decitabine (first compound 0.02 µM); 0.521 in the test with PAC-1 + Decitabine (first compound 0.06325 µM); 0.482 in the test with PAC-1 + Decitabine (first compound 0.2 µM). Further, the relative viability with PAC-1 + Decitabine (first compound 2 µM) was 0.483.
Turning to NCI-H1915, the relative viability with BMX-IN-1 + Dasatinib (first compound 0.02 µM) worked out at 0.351; with BMX-IN-1 + Dasatinib (first compound 0.2 µM), 0.338; with BMX-IN-1 + Dasatinib (first compound 0.6325 µM), 0.411; in the test with BMX-IN-1 + Dasatinib (first compound 2 µM), 0.302; with BMX-IN-1 + Phenformin (first compound 0.02 µM) it was 0.32; with BMX-IN-1 + Phenformin (first compound 0.2 µM) it was 0.387. In addition, the relative viability in the test with BMX-IN-1 + Phenformin (first compound 0.6325 µM) was 0.389; with BMX-IN-1 + Phenformin (first compound 2 µM) it was 0.37; in the test with BMX-IN-1 + Decitabine (first compound 0.02 µM) it was 0.282; with BMX-IN-1 + Decitabine (first compound 0.2 µM), 0.272; in the test with BMX-IN-1 + Decitabine (first compound 0.6325 µM) it was 0.284; in the test with BMX-IN-1 + Decitabine (first compound 2 µM), 0.273. In addition, the relative viability was 0.995 with PAC-1 + Bortezomib (first compound 0.02 µM); 0.964 in the test with PAC-1 + Bortezomib (first compound 0.06325 µM); 0.907 with PAC-1 + Bortezomib (first compound 0.2 µM); 1.02 with PAC-1 + Bortezomib (first compound 2 µM); 0.266 with PAC-1 + Decitabine (first compound 0.02 µM); 0.253 with PAC-1 + Decitabine (first compound 0.06325 µM). Further, the relative viability was found to be 0.245 with PAC-1 + Decitabine (first compound 0.2 µM) and 0.27 with PAC-1 + Decitabine (first compound 2 µM).
Consider NCI-H1975, for which the relative viability with BMX-IN-1 + Dasatinib (first compound 0.02 µM) stood at 0.362; with BMX-IN-1 + Dasatinib (first compound 0.2 µM), 0.382; in the test with BMX-IN-1 + Dasatinib (first compound 0.6325 µM), 0.457; with BMX-IN-1 + Dasatinib (first compound 2 µM) it was 0.38; with BMX-IN-1 + Phenformin (first compound 0.02 µM), 0.404; in the test with BMX-IN-1 + Phenformin (first compound 0.2 µM) it was 0.428. The relative viability with BMX-IN-1 + Phenformin (first compound 0.6325 µM) came out at 0.453; with BMX-IN-1 + Phenformin (first compound 2 µM), 0.416; with BMX-IN-1 + Decitabine (first compound 0.02 µM), 0.362; with BMX-IN-1 + Decitabine (first compound 0.2 µM) it was 0.345; with BMX-IN-1 + Decitabine (first compound 0.6325 µM), 0.42; in the test with BMX-IN-1 + Decitabine (first compound 2 µM), 0.417. Also, the relative viability with PAC-1 + Bortezomib (first compound 0.02 µM) stood at 0.35; with PAC-1 + Bortezomib (first compound 0.06325 µM), 0.396; in the test with PAC-1 + Bortezomib (first compound 0.2 µM) it was 0.378; with PAC-1 + Bortezomib (first compound 2 µM) it was 0.386; in the test with PAC-1 + Decitabine (first compound 0.02 µM) it was 0.413; with PAC-1 + Decitabine (first compound 0.06325 µM), 0.408. The relative viability stood at 0.333 in the test with PAC-1 + Decitabine (first compound 0.2 µM) and 0.388 with PAC-1 + Decitabine (first compound 2 µM).
Take NCI-H1993: the relative viability with BMX-IN-1 + Dasatinib (first compound 0.02 µM) was 0.659; with BMX-IN-1 + Dasatinib (first compound 0.2 µM), 0.703; with BMX-IN-1 + Dasatinib (first compound 0.6325 µM), 0.479; with BMX-IN-1 + Dasatinib (first compound 2 µM), 0.634; with BMX-IN-1 + Phenformin (first compound 0.02 µM), 0.438; with BMX-IN-1 + Phenformin (first compound 0.2 µM), 0.525. For the same cell line, the relative viability in the test with BMX-IN-1 + Phenformin (first compound 0.6325 µM) came out at 0.453; in the test with BMX-IN-1 + Phenformin (first compound 2 µM) it was 0.492; with BMX-IN-1 + Decitabine (first compound 0.02 µM) it was 0.678; in the test with BMX-IN-1 + Decitabine (first compound 0.2 µM), 0.525; with BMX-IN-1 + Decitabine (first compound 0.6325 µM) it was 0.53; with BMX-IN-1 + Decitabine (first compound 2 µM), 0.631. For the same cell line, the relative viability with PAC-1 + Bortezomib (first compound 0.02 µM) stood at 0.975; in the test with PAC-1 + Bortezomib (first compound 0.06325 µM), 1.08; with PAC-1 + Bortezomib (first compound 0.2 µM) it was 1.15; in the test with PAC-1 + Bortezomib (first compound 2 µM) it was 1.09; with PAC-1 + Decitabine (first compound 0.02 µM), 0.737; with PAC-1 + Decitabine (first compound 0.06325 µM), 0.58. In addition, the relative viability with PAC-1 + Decitabine (first compound 0.2 µM) stood at 0.595; with PAC-1 + Decitabine (first compound 2 µM), 0.541.
